{
  "source": "patent US5091528A",
  "about": "“6- or 7- (2-imino-2-imidazolidine)-1,4-benzoxazines as α adrenergic agents” (Allergan, Inc., priority 1990, dated 1992)",
  "key": {"alpha2 -Adrenoreceptor": {"test_system": "alpha2 -Adrenoreceptor", "settings": "described by Chapleo et al.; cited from earlier work"}, "[1]": {"target": "T1, alpha-2 adrenergic receptor (Oryctolagus cuniculus, UniProt Q5ZQK3)", "T1 construct": "The prostatic ends of the vasa deferentia (2-3 cm lengths) were mounted between platinum ring electrodes; from tissue; host or cells: prostatic ends of vasa deferentia of New Zealand white rabbits", "T1 sequence (Q5ZQK3 1-451)": "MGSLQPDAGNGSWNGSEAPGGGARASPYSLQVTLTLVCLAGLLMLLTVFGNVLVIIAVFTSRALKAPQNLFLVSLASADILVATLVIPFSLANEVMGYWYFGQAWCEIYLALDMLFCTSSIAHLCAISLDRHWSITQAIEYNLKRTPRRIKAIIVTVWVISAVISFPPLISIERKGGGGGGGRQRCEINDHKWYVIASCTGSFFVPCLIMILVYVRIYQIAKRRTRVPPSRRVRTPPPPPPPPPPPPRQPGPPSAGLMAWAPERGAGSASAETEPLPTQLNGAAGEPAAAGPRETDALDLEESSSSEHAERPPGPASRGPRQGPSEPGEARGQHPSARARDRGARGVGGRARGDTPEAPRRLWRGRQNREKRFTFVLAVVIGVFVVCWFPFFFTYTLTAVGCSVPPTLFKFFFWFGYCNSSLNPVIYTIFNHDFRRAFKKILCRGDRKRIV", "test": "Rabbit Vas Deferens Assay (alpha-2 adrenergic receptor activity)", "set-up": "species or system New Zealand white rabbit", "settings": "field-stimulated rabbit vas deferens, 35 degrees C, 4 minute contact time; read-out: EC50 (effective concentration required for a 50% reduction in response height)", "procedure": "(§1) The test procedure for alpha-2 adrenergic receptor activity of the compounds of the present invention is the rabbit vas deferens assay which is described as follows:\n(§2) New Zealand white rabbits (2-3 kg) were killed by CO2 inhalation and the vasa deferentia removed. The prostatic ends of the vasa deferentia (2-3 cm lengths) were mounted between platinum ring electrodes in 9 ml organ baths and bathed in Krebs bicarbonate solution of the following composition (millimolar): NaCl 118.0; KCl 4.7; CaCl2 2.5; MgSO4 1.2; KH2 PO4 1.2; glucose 11.0; NaHCO3 25.0; which solution was maintained at 35 degrees C and bubbled with 95% O2 and 5% CO2. The initial tension of the vas deferens was 0.5 g. The tissues were left to equilibrate for 30 minutes before stimulation was started. […] Cumulative concentration-response curves were obtained for the compounds being tested with a 4 minute contact time at each concentration. The reduction in response height was measured and expressed as a percentage of the height of the response before the addition of the compounds. Concentration response curves for each of the compounds were plotted. The effective concentration required for a 50% reduction in response height, expressed as EC50 were obtained from these curves."}, "[2]": {"test_system": "alpha-2 adrenergic receptor", "test": "Rabbit Vas Deferens Assay (alpha-2 adrenergic receptor activity)", "set-up": "species or system New Zealand white rabbit", "settings": "for Comment (α1/α2 selectivity): Rabbit Vas Deferens table", "procedure": "as §1, §2"}, "[3]": {"test_system": "Alpha 1 adrenergic receptor", "test": "Rabbit Aorta: Alpha 1 adrenergic receptor assay", "settings": "rabbit thoracic aorta rings, 37° C", "text": "The vasoconstrictive properties of the compounds of the present invention, i.e. their ability to reduce or control intraocular bleeding, are established by the rabbit aorta: alpha 1 adrenergic receptors in vivo assay procedure, which is recognized in the art to be indicative of the in vivo activity of the tested compounds as vaso-constrictors or as anti intraocular bleeding agents.\nThoracic aorta specimens were obtained form albino rabbits that were killed by CO2 inhalation. The aorta was cut into 3 mm rings. Tissues were placed in Krebs-Hensleit solution of the following composition (millimolar): NaCl 119; KCl 4.7; MgSO4 1.5, KH2 PO4 1.2; CaCl2 2.5; NaHCO3 25 and glucose 11.0. The solution also contained cocaine (0.1 millimolar) to block neuronal uptake and EDTA (30 micromolar) and ascorbic acid (5 micromolar) to prevent oxidation of the compound being tested. Tissues were hung in 10 ml organ baths and tension was measured via Grass FT03 force-displacement transducers. Resting tension was 2 g for the aorta. The solution was gassed with 95% O2 and 5% CO2 and maintained at 37° C. Tissues were allowed to equilibrate for 2 hours before stimulation and the cumulative addition of the compound to be tested (aryl oxazoline) was started. Tissue stimulation was performed using a square wave stimulator (WPI A310) Accupulser with A385 stimulus) at 0.1 Hz, 2 ms pulse width at 90 mA."}, "intraocular pressure": {"test_system": "intraocular pressure", "test": "intraocular pressure (anti-glaucoma) assay, topical unilateral administration", "assay_type": "in vivo, monkey or New Zealand white rabbit", "procedure": "The anti-glaucoma activity (ability to maintain or reduce intraocular pressure) of the compounds of the present invention is established by the following assay pressure. This assay procedure is generally recognized in the art to provide pertinent information with respect to the anti-glaucomaactivity of the formulations assayed. Thus, each of the compounds of the invention to be tested was dissolved in distilled water at a concentration of 0.3% (W/V). Each of these solutions was administered topically and unilaterally to one eye of a drugnaive, unanesthetized monkey or New Zealand white rabbit in a single 50 micro liter drop. The contralateral eye received an equal volume of saline prior to determining the intraocular pressure after the mixture was administered. Also, approximately 10 micro liters of 0.5% (W/V) proparacaine (topical anesthetic) was applied to the corneas of each of the animals before determining intraocular pressure. As a control test, six (6) other drug-naive, unanesthetized animals were treated and tested as described above except that no compound of the invention was included in the solutions administered to the eyes.\nThe intraocular pressure was determined in both eyes of each animal both before and after the solutions were administered. Such intraocular pressure determinations were made in the conventional manner using conventional equipment."}, "[4]": {"test": "storage stability of solid", "assay_type": "physicochemical", "settings": "stored in the dark at 0° C"}, "[5]": {"settings": "Contralateral (Untreated) Eye, 0.3% (W/V) to the other eye"}, "[6]": {"settings": "Ipsilateral (Treated) Eye, 0.3% (W/V), single 50 micro liter drop"}},
  "note": "Where a name gives a salt, the structure may show the parent alone.",
  "data": [
    {"smiles": "O=C1COc2cc(N=C3NCCN3)ccc2N1", "note": "[Example 3, 7-2(2-imino-2-imidazolidine)-3-oxo-3,4-dihydro-(2H)-1,4-benzoxazine]", "values": [
      {"measurement": "alpha-2 agonist activity", "setting": "alpha2 -Adrenoreceptor", "result": "partial alpha-2 agonists"}
    ]},
    {"smiles": "O=C1COc2cc(N=C3NCCN3)c(Br)cc2N1", "note": "[Example 4, 6-Bromo-7-(2-imino-2-imidazolidine)-3-oxo-3,4-dihydro-(2H)-1,4-benzoxazine,hydrobromide]", "values": [
      {"measurement": "EC50", "setting": "[1]", "result": "167 ± 56.1", "unit": "nM"},
      {"measurement": "Comment (α1/α2 selectivity)", "setting": "[2]", "result": "α2 Selective"},
      {"measurement": "EC50", "setting": "[3]", "result": "1120 ± 457", "unit": "nM"}
    ]},
    {"smiles": "O=C1COc2c(cc(Br)c(N=C3NCCN3)c2Br)N1", "note": "[Example 5, 6,8-dibromo-7-(2-imino-2-imidazolidine)-3-oxo-3,4-dihydro-(2H)-1,4-benzoxazine]", "values": [
      {"measurement": "EC50", "setting": "[1]", "result": "0.59 ± 0.14", "unit": "nM"},
      {"measurement": "Comment (α1/α2 selectivity)", "setting": "[2]", "result": "Non-Selective"},
      {"measurement": "Comment (vasoconstrictor activity)", "setting": "[2]; printed \"Potent- Vasoconstrictor\" on two lines", "result": "Vasoconstrictor"},
      {"measurement": "EC50", "setting": "[3]", "result": "3.41 ± 0.5", "unit": "nM"}
    ]},
    {"smiles": "Brc1cc2c(cc1N=C1NCCN1)OCCN2", "note": "[Example 7, 6-bromo-7-(2-imino-2-imidazolidine)-3,4-dihydro-(2H)-1,4-benzoxazine]", "values": [
      {"measurement": "EC50", "setting": "[1]", "result": "> 10000", "unit": "nM"},
      {"measurement": "Comment (α1/α2 selectivity)", "setting": "[2]", "result": "α1 Selective"},
      {"measurement": "EC50", "setting": "[3]", "result": "39 ± 6.36", "unit": "nM"}
    ]},
    {"smiles": "O=C1COc2ccc(N=C3NCCN3)cc2N1", "note": "[Example 12, 6-(2-imino-2-imidazlidine)-3-oxo-3,4-dihydro-(2H)-1,4-benzoxazine]", "values": [
      {"measurement": "alpha-2 agonist activity", "setting": "alpha2 -Adrenoreceptor", "result": "partial alpha-2 agonists"}
    ]},
    {"smiles": "O=C1COc2cc(Br)c(N=C3NCCN3)c(Br)c2N1", "note": "[Example 14, 5,7-dibromo-6-(2-imino-2-imidazolidine)-3-oxo-3,4-dihydro-2H-1,4-benzoxazin]", "values": [
      {"measurement": "EC50", "setting": "[1]", "result": "48.5 ± 20.6", "unit": "nM"},
      {"measurement": "Comment (α1/α2 selectivity)", "setting": "[2]", "result": "α2 Selective"},
      {"measurement": "EC50", "setting": "[3]", "result": "> 100000", "unit": "nM"}
    ]},
    {"smiles": "CN1C(=O)COc2cc(N=C3NCCN3)c(Br)cc21", "note": "[Example 22, 4-methyl-6-bromo-7-(2-imino-imidazolidine)-3-oxo-3,4-dihydro-2H-1,4-benzoxazinehydrobromide]", "values": [
      {"measurement": "EC50", "setting": "[1]", "result": "105 ± 35.5", "unit": "nM"},
      {"measurement": "Comment (α1/α2 selectivity)", "setting": "[2]", "result": "α2 Selective"},
      {"measurement": "Duration of IOP decrease", "setting": "intraocular pressure; [5]", "result": 1, "unit": "h"},
      {"measurement": "Maximum Difference in Intraocular Pressure After Solution Administration, % Decrease in IOP from Control", "setting": "intraocular pressure; [5]", "result": "5.7 ± 2.0", "unit": "%"},
      {"measurement": "Duration of IOP decrease", "setting": "intraocular pressure; [6]", "result": "1 to 2", "unit": "h"},
      {"measurement": "Maximum Difference in Intraocular Pressure After Solution Administration, % Decrease in IOP from Control", "setting": "intraocular pressure; [6]", "result": "11.5 ± 2.7", "unit": "%"},
      {"measurement": "EC50", "setting": "[3]", "result": "1430 ± 891", "unit": "nM"}
    ]},
    {"smiles": "CN1C(=O)COc2cc(Br)c(N=C3NCCN3)cc21", "note": "[Example 31, 7-bromo-4-methyl-6-(2-imino-imidazolidine)-3-oxo-3,4-dihydro-(2H)-1,4-benzoxazine]", "values": [
      {"measurement": "EC50", "setting": "[1]", "result": "41.5 ± 24.4", "unit": "nM"},
      {"measurement": "Comment (α1/α2 selectivity)", "setting": "[2]", "result": "α2 Selective"},
      {"measurement": "Duration of IOP decrease", "setting": "intraocular pressure; [5]", "result": 1, "unit": "h"},
      {"measurement": "Maximum Difference in Intraocular Pressure After Solution Administration, % Decrease in IOP from Control", "setting": "intraocular pressure; [5]", "result": "6.8 ± 1.8", "unit": "%"},
      {"measurement": "Duration of IOP decrease", "setting": "intraocular pressure; [6]", "result": "1 to 6", "unit": "h"},
      {"measurement": "Maximum Difference in Intraocular Pressure After Solution Administration, % Decrease in IOP from Control", "setting": "intraocular pressure; [6]", "result": "14 ± 2.5", "unit": "%"},
      {"measurement": "EC50", "setting": "[3]", "result": "2740 ± 1430", "unit": "nM"}
    ]},
    {"smiles": "Cc1cc2c(cc1N=C1NCCN1)NC(=O)CO2", "note": "[Example 39, 7-methyl-6(2-imino-2-imidazolidine)-3-oxo-3,4-dihydro-(2H)-1,4-benzoxazine]", "values": [
      {"measurement": "EC50", "setting": "[1]", "result": "74.6 ± 43.6", "unit": "nM"},
      {"measurement": "Comment (α1/α2 selectivity)", "setting": "[2]", "result": "α2 Selective"},
      {"measurement": "EC50", "setting": "[3]", "result": "5690 ± 956", "unit": "nM"}
    ]},
    {"smiles": "CCc1cc2c(cc1N=C1NCCN1)NC(=O)CO2", "note": "[Example 50, 7-Ethyl-6-(2-imino-2-imidazolidine)-3-oxo-3,4-dihydro-(2H)-1,4-benzoxazine]", "values": [
      {"measurement": "EC50", "setting": "[1]", "result": "8.92 ± 3.11", "unit": "nM"},
      {"measurement": "Comment (α1/α2 selectivity)", "setting": "[2]", "result": "α2 Selective"},
      {"measurement": "EC50", "setting": "[3]", "result": "940 ± 18.5", "unit": "nM"}
    ]},
    {"smiles": "CCCc1c(N=C2NCCN2)ccc2c1NC(=O)CO2", "note": "[Example 56, 5-Propyl-6-(2-imino-2-imidazolidine)-3-oxo-3,4-dihydro-(2H)-1,4-benzoxazine]", "values": [
      {"measurement": "EC50", "setting": "[1]", "result": "18.1 ± 1.21", "unit": "nM"},
      {"measurement": "Comment (α1/α2 selectivity)", "setting": "[2]", "result": "α2 Selective"},
      {"measurement": "EC50", "setting": "[3]", "result": "1120 ± 94.1", "unit": "nM"}
    ]},
    {"smiles": "O=S(=O)(O)C1=NCCN1", "note": "[Imidazoline-2-sulfonic acid]", "values": [
      {"measurement": "stability of solid on storage", "setting": "[4]", "result": "at least 6 months"}
    ]}
  ]
}
